From US9439904B2, “Pyrimidine compounds and their use as gamma secretase modulators” (Acturum Life Science AB, priority 2013, dated 2016)

Tests used:
Aβ42 [1] = assay: PCN assay: Aβ42 secreted by primary cortical neuronal cells, ELISA; format: cell-based; details: primary cortical neuronal cells from 16-day mouse embryos; 16-20 hours incubation with test compound; read-out: pIC50 Aβ42 PCN assay (converted)
Description: Compounds were diluted in 100% DMSO and stored at […] prior to use. Primary cortical neuronal cells (PCN) were isolated from 16-day mouse embryos and cultured in Ham's F12 media containing 10% Foetal bovine serum, 10 mM Hepes, 2 mM L-glutamine and 100 U/mL Penicillin-Streptomycin. 150000-250000 cells/well, in 200 μL cell media were seeded onto 96-well poly-D-Lysine coated plates. After incubation at 37° C., 5% CO2 for five days, the media was exchanged for fresh medium containing test compound diluted ×100, before further incubation for 16-20 hours at 37° C. and 5% CO2. After incubation with test compound the amount of […] secreted to cell medium was analyzed using the solid phase sandwich Enzyme-Linked-Immuno-Sorbent Assay (ELISA)-kit from Invitrogen for detection of mouse βAmyloid 1-42. Potential cytotoxic effects of the compounds were assayed by measuring the ATP content (Via Light) from cell lysate.

Aβ42 [2] = assay: HEK assay: Aβ42 secreted to cell medium, Meso Scale Discovery electrochemiluminescence; format: cell-based; details: Homo sapiens, HEK293; HEK cell line stably expressing APPswe; 4-6 hours incubation with test compound; read-out: pIC50 Aβ42 HEK assay (converted)
Description: Compounds were diluted in 100% DMSO and stored at […] prior to use. Human Embryonic Kidney (HEK) cell line stably expressing APP with the Swedish mutation (APPswe) was cultured using Dulbecco's Modified Eagles medium (DMEM) supplied with […] glucose, Na-pyruvate and GlutaMAX, 10% Foetal bovine serum, 100 U/mL penicillin-streptomycin (PEST), 1× non-essential amino acids (NEAA), […] Hepes, 100 μg/mL Zeocine. Cells at about 80% confluence were washed with PBS, detached from culture flasks using 1× Trypsin/EDTA diluted in PBS, re-suspended in cell media and plated in 384-well poly-d-lysine coated cell culture plates at about 10000-15000 cells/well, in 25 μL cell media. Optionally, cryo-preserved cells (frozen and stored at −140° C. in 90% cell media and 10% DMSO) were thawed, washed and plated as above. Next the cells were incubated for 15-24 h at 37° C. and 5% CO2, after which cell medium was changed. Fresh medium containing test compound diluted ×200 from prepared compound plate was added to the cells before further incubation for 4-6 hours at 37° C. and 5% CO2. After incubation with test compound the amount of Aβ peptides, including Aβ42, Aβ40, Aβ39, Aβ38 and Aβ37, secreted to cell medium was analyzed using the electrochemiluminescence assay technology from Meso Scale Discovery Technology, in combination with specific antibodies raised against the different Aβ peptides. Potential cytotoxic effects of the compounds were assayed by measuring the ATP content (ViaLight) from cell lysate.

IC50 (Aβ42 [2]) [nM] | Compound | IC50 (Aβ42 [1]) [nM]
63.1 | COc1cc(Nc2nc(CO)cc(COCC(F)(F)F)n2)ccc1-n1cnc(C)c1 [Example 10, (2-(3-Methoxy-4-(4-methyl-1H-imidazol-1-yl)phenylamino)-6-((2,2,2-trifluoroethoxy)methyl)pyrimidin-4-yl)methanol] | 31.6
79.4 | COc1cc(Nc2nc(COCC(F)(F)F)cc(C(O)C(F)(F)F)n2)ccc1-n1cnc(C)c1 (centres unmarked) [Example 12, 2,2,2-Trifluoro-1-(2-(3-methoxy-4-(4-methyl-1H-imidazol-1-yl)phenylamino)-6-((2,2,2-trifluoroethoxy)methyl)pyrimidin-4-yl)ethanol] | 39.8
20 | COc1cc(Nc2nc(COCC(F)(F)F)cc(C(O)CC3CC3)n2)ccc1-n1cnc(C)c1 (centres unmarked) [Example 13, 2-Cyclopropyl-1-(2-(3-methoxy-4-(4-methyl-1H-imidazol-1-yl)phenylamino)-6-((2,2,2-trifluoroethoxy)methyl)pyrimidin-4-yl)ethanol] | 50.1
31.6 | COc1cc(Nc2nc(COCC(F)(F)F)cc(C(C)(C)O)n2)ccc1-n1cnc(C)c1 [Example 15, 2-(2-(3-Methoxy-4-(4-methyl-1H-imidazol-1-yl)phenylamino)-6-((2,2,2-trifluoroethoxy)-methyl)pyrimidin-4-yl)propan-2-ol] | 50.1
50.1 | COc1cc(Nc2nc(COCC3CC3)cc(COCC(F)(F)F)n2)ccc1-n1cnc(C)c1 [Example 16, 4-((Cyclopropylmethoxy)methyl)-N-(3-methoxy-4-(4-methyl-1H-imidazol-1-yl)phenyl)-6-((2,2,2-trifluoroethoxy)methyl)pyrimidin-2-amine] | 79.4
39.8 | COc1cc(Nc2nc(COCC(F)(F)F)cc(N3CCC3)n2)ccc1-n1cnc(C)c1 [Example 20, 4-(Azetidin-1-yl)-N-(3-methoxy-4-(4-methyl-1H-imidazol-1-yl)phenyl)-6-((2,2,2-trifluoroethoxy)methyl)pyrimidin-2-amine] | 100
39.8 | COc1cc(Nc2nc(COCC(F)(F)F)cc(C(O)C3CC3)n2)ccc1-n1cnc(C)c1 (centres unmarked) [Example 28, Cyclopropyl(2-(3-methoxy-4-(4-methyl-1H-imidazol-1-yl)phenylamino)-6-((2,2,2-trifluoroethoxy)methyl)pyrimidin-4-yl)methanol] | 100
251 | COc1cn(-c2ccc(Nc3nc(COCC(F)(F)F)cc(C(C)O)n3)cc2OC)cn1 (centres unmarked) [Example 31, 1-(2-(3-Methoxy-4-(4-methoxy-1H-imidazol-1-yl)phenylamino)-6-((2,2,2-trifluoroethoxy)-methyl)pyrimidin-4-yl)ethanol] | 316
39.8 | COc1cc(Nc2nc(COCC(F)(F)F)cc(NCC3CC3)n2)ccc1-n1cnc(C)c1 [Example 33, N^4-(Cyclopropylmethyl)-N^2-(3-methoxy-4-(4-methyl-1H-imidazol-1-yl)phenyl)-6-((2,2,2-trifluoroethoxy)methyl)pyrimidine-2,4-diamine] | 50.1
50.1 | COc1cc(Nc2nc(COCC(F)(F)F)cc(NC3CC3)n2)ccc1-n1cnc(C)c1 [Example 34, N^4-Cyclopropyl-N^2-(3-methoxy-4-(4-methyl-1H-imidazol-1-yl)phenyl)-6-((2,2,2-trifluoroethoxy)methyl)pyrimidine-2,4-diamine] | 100
50.1 | COc1cc(Nc2nc(COCC(F)(F)F)cc(NC3COC3)n2)ccc1-n1cnc(C)c1 [Example 35, N^2-(3-Methoxy-4-(4-methyl-1H-imidazol-1-yl)phenyl)-N^4-(oxetan-3-yl)-6-((2,2,2-trifluoroethoxy)methyl)pyrimidine-2,4-diamine] | 25.1
63.1 | COc1cc(Nc2nc(COCC(F)(F)F)cc(NCC(C)(C)O)n2)ccc1-n1cnc(C)c1 [Example 36, 1-(2-(3-Methoxy-4-(4-methyl-1H-imidazol-1-yl)phenylamino)-6-((2,2,2-trifluoroethoxy)-methyl)pyrimidin-4-ylamino)-2-methylpropan-2-ol] | 39.8

Further lines, the compound ahead of its results:

Compound | IC50 (Aβ42 [2]) [nM] | IC50 (Aβ42 [1]) [nM]
COc1cc(Nc2nc(C(C)OCC(F)(F)F)cc(C(C)(C)O)n2)ccc1-n1cnc(C)c1 (centres unmarked) [Example 11, 2-(2-(3-Methoxy-4-(4-methyl-1H-imidazol-1-yl)phenylamino)-6-(1-(2,2,2-trifluoroethoxy)ethyl)pyrimidin-4-yl)propan-2-ol] | 25.1 | 50.1
COc1cc(Nc2nc(COCC3CC(F)(F)C3)cc(C(C)(C)O)n2)ccc1-n1cnc(C)c1 [Example 17, 2-(6-(((3,3-Difluorocyclobutyl)methoxy)methyl)-2-(3-methoxy-4-(4-methyl-1H-imidazol-1-yl)phenylamino)pyrimidin-4-yl)propan-2-ol] | 200 | 200
COc1cc(Nc2nc(COCCC(F)(F)F)cc(C(C)(C)O)n2)ccc1-n1cnc(C)c1 [Example 18, 2-(2-(3-Methoxy-4-(4-methyl-1H-imidazol-1-yl)phenylamino)-6-((3,3,3-trifluoropropoxy)-methyl)pyrimidin-4-yl)propan-2-ol] | 63.1 | 100
COc1cc(Nc2nc(COCC(F)(F)F)cc(N3CCC3)n2)ccc1-c1cnnc(C)c1 [Example 21, 4-(Azetidin-1-yl)-N-(3-methoxy-4-(6-methylpyridazin-4-yl)phenyl)-6-((2,2,2-trifluoroethoxy)methyl)pyrimidin-2-amine] | 126 | 50.1
COc1cc(Nc2nc(COCC(F)(F)F)cc(N3CCC(F)(F)CC3)n2)ccc1-c1cnnc(C)c1 [Example 22, 4-(4,4-Difluoropiperidin-1-yl)-N-(3-methoxy-4-(6-methylpyridazin-4-yl)phenyl)-6-((2,2,2-trifluoroethoxy)methyl)pyrimidin-2-amine] | 79.4 | 63.1
COc1cc(Nc2nc(COCC(F)(F)F)cc(NC(C)C)n2)ccc1-c1cnnc(C)c1 [Example 23, N^4-Isopropyl-N^2-(3-methoxy-4-(6-methylpyridazin-4-yl)phenyl)-6-((2,2,2-trifluoroethoxy)-methyl)pyrimidine-2,4-diamine] | 79.4 | 79.4
CNc1cc(COCC(F)(F)F)nc(Nc2ccc(-c3cnnc(C)c3)c(OC)c2)n1 [Example 24, N^2-(3-Methoxy-4-(6-methylpyridazin-4-yl)phenyl)-N^4-methyl-6-((2,2,2-trifluoroethoxy)-methyl)pyrimidine-2,4-diamine] | 100 | 79.4
COc1cc(Nc2nc(COCC(F)(F)F)cc(N(C)Cc3ccccc3)n2)ccc1-n1cnc(C)c1 [Example 25, N^4-Benzyl-N^2-(3-methoxy-4-(4-methyl-1H-imidazol-1-yl)phenyl)-N^4-methyl-6-((2,2,2-trifluoroethoxy)methyl)pyrimidine-2,4-diamine] | 25.1 | 50.1
COc1cc(Nc2nc(COCC(F)(F)F)cc(N3CCC(F)(F)CC3)n2)ccc1-n1cnc(C)c1 [Example 26, 4-(4,4-Difluoropiperidin-1-yl)-N-(3-methoxy-4-(4-methyl-1H-imidazol-1-yl)phenyl)-6-((2,2,2-trifluoroethoxy)methyl)pyrimidin-2-amine] | 50.1 | 20
COCc1cc(C(C)(C)O)nc(Nc2ccc(-n3cnc(C)c3)c(OC)c2)n1 [Example 27, 2-(2-(3-Methoxy-4-(4-methyl-1H-imidazol-1-yl)phenylamino)-6-(methoxymethyl)pyrimidin-4-yl)propan-2-ol] | 158 | 126
COc1cc(Nc2nc(COCC3CC3)cc(C(C)(C)O)n2)ccc1-n1cnc(C)c1 [Example 29, 2-(6-((Cyclopropylmethoxy)methyl)-2-(3-methoxy-4-(4-methyl-1H-imidazol-1-yl)phenylamino)pyrimidin-4-yl)propan-2-ol] | 39.8 | 63.1
CNc1cc(COCC2CC2)nc(Nc2ccc(-n3cnc(C)c3)c(OC)c2)n1 [Example 30, 6-((Cyclopropylmethoxy)methyl)-N2-(3-methoxy-4-(4-methyl-1H-imidazol-1-yl)phenyl)-N4-methylpyrimidine-2,4-diamine] | 39.8 | 63.1
COc1cn(-c2ccc(Nc3nc(COCC(F)(F)F)cc(C(C)(C)O)n3)cc2OC)cn1 [Example 32, 2-(2-(3-Methoxy-4-(4-methoxy-1H-imidazol-1-yl)phenylamino)-6-((2,2,2-trifluoroethoxy)-methyl)pyrimidin-4-yl)propan-2-ol] | 100 | 316
